Reference: patent US8598217B2, “Imidazole derivatives and their use as modulators of cyclin dependent kinases” (Astex Therapeutics Ltd., priority 2009, dated 2013)
Where two headings read alike, the source gives them in different places.

Target: CDK4/cyclin D1 (Homo sapiens (Human), UniProt P11802)
Test: CDK4/cyclin D1 enzymatic activity assay (Protocol A, Lance TR-FRET)
Type: biochemical
Settings: CDK4/cyclin D1, 175 nM pRb152, 3 μM ATP
Protocol: A 384-well microtiter Lance TR-FRET (time-resolved-fluorescence energy transfer) endpoint assay was used for CDK4/cyclin D1 kinase activity measurements. The same assay was used for IC50 determination of small molecule inhibitors. In general, the kinase reactions were carried out in 30 μL volumes in the reaction solution containing the following: 2 μL compound (in 20% DMSO), 18 uL CDK4/cyclin D1 in Assay Buffer (50 mM HEPES, pH 7.5, 5 mM MgCl2, 2 mM MnCl2, 1 mM DTT, 0.05% BSA, 0.02% Tween-20), 10 μL of the mixture of pRb152 and ATP. The final reaction mixture contains compound (inhibitor) with the concentration varying from […], 2% DMSO, 0.3 nM CDK4/cyclin D1, 175 nM pRb152, and 3 μM ATP (Amersham Pharmacia, Cat. No. 27-2056-01). All reactions were run at room temperature in 384-well white flat-bottom OptiPlates (Perkin Elmer, Cat. No. 6007290) for 60 min then were quenched by the addition of 10 μL of 120 mM EDTA. The signals were captured by the addition of 40 μL of the Detection Solution containing the following: Detection Buffer (50 mM HEPES, pH 7.5, 30 mM EDTA, 0.1% Triton x-100, 0.05% BSA), 70 ng/mL anti-phospho-pRb(S780) (Cell Signaling Technology, Cat. No. 9307S), 1 nM Lance Eu-W1024-Rabbit anti-IgG (Perkin Elmer, Cat. No. AD0082), and 20 nM SureLight™ Allophycocyanin-Streptavidin (Perkin Elmer, Cat. No. CR130-100). The resulted solutions were incubated at room temperature for 2 hours before read on the Evision Multilabel Reader (Perkin Elmer, Envision 2102-0010). Note: IC50<0.005 nM or IC50>10 μM indicates the true IC50 is out of detection range.
CDK4/cyclin D1 recombinant protein used in the enzymatic activity assay was prepared by coexpressing pDEST10-CDK4 (N-terminal His6) and pFastBacDual-GST-hCyclinD1 viruses in Sf21 cells. The overexpressed protein was purified by Ni-NTA affinity pull down to >80% pure by Sizing HPLC.

[1] = bound stated, read-out: IC50 values against CDK4
[2] = 60 min, room temperature, read-out: IC50 against CDK4 kinase

Chain of CDK4/cyclin D1 (P11802 whole entry): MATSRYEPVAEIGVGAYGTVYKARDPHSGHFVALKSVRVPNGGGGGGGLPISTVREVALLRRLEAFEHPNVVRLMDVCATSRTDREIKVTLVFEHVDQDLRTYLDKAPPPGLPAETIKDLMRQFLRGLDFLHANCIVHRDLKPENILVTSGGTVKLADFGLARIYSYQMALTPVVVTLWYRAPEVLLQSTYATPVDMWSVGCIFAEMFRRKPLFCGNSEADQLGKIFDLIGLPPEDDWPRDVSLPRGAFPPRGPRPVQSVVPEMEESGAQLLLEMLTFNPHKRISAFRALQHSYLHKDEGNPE
Chain of CDK4/cyclin D1 (P24385 whole entry partner): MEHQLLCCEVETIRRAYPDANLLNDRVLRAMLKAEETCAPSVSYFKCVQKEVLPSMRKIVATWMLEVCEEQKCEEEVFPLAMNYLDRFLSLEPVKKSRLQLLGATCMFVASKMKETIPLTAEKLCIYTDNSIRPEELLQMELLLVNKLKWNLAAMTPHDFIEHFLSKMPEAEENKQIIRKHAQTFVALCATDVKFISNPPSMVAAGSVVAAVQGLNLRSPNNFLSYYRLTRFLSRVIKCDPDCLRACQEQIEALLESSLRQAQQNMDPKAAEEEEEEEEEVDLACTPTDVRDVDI

IC50 [1]	IC50 [2]	SMILES
< 10000 nM	–	COc1cccc(F)c1-c1cc(C(=O)c2nc3ccc(N4CCN(C)CC4)cc3[nH]2)ccn1 [Example 49, [2-(2-Fluoro-6-methoxy-phenyl)-pyridin-4-yl]-[6-(4-methyl-piperazin-1-yl)-1H-benzoimidazol-2-yl]-methanone]
< 10000 nM	–	COc1cccc(F)c1-c1cc(C(=O)c2nc3ccc(N4CCC(N(C)C)CC4)cc3[nH]2)ccn1 [Example 50, [6-(4-Dimethylamino-piperidin-1-yl)-1H-benzoimidazol-2-yl]-[2-(2-fluoro-6-methoxy-phenyl)-pyridin-4-yl]-methanone]
< 10000 nM	–	COc1ccc(F)c(F)c1-c1cc(C(=O)c2ncc[nH]2)ccn1 [Example 66, [2-(2,3-Difluoro-6-methoxy-phenyl)-pyridin-4-yl]-(1H-imidazol-2-yl)-methanone]
< 10000 nM	–	COc1cccc(F)c1-c1cc(C(=O)c2nc3cc(CN4CCOCC4)ccc3[nH]2)ccn1 [Example 73, [2-(2-Fluoro-6-methoxy-phenyl)-pyridin-4-yl]-(5-morpholin-4-ylmethyl-1H-benzoimidazol-2-yl)-methanone]
< 10000 nM	–	CN(C)Cc1cccc2[nH]c(C(=O)c3ccnc(-c4cncc5ccccc45)c3)nc12 [Example 79A, (4-Dimethylaminomethyl-1H-benzoimidazol-2-yl)-(2-isoquinolin-4-yl-pyridin-4-yl)-methanone]
< 10000 nM	–	COc1ccc(F)c(F)c1-c1cc(C(=O)c2nc3c(CN(C)C)cccc3[nH]2)ccn1 [Example 79B, [2-(2,3-Difluoro-6-methoxy-phenyl)-pyridin-4-yl]-(4-dimethylaminomethyl-1H-benzoimidazol-2-yl)-methanone]
–	57 nM	CN(C)Cc1ccc2nc(C(=O)c3ccnc(-c4cncc5ccccc45)c3)[nH]c2c1 [Example 84, (6-Dimethylaminomethyl-1H-benzoimidazol-2-yl)-(2-isoquinolin-4-yl-pyridin-4-yl)-methanone]
–	27 nM	CN1CCN(Cc2ccc3[nH]c(C(=O)c4ccnc(-c5cncc6ccccc56)c4)nc3c2)CC1 [Example 86, (2-Isoquinolin-4-yl-pyridin-4-yl)-[5-(4-methyl-piperazin-1-ylmethyl)-1H-benzoimidazol-2-yl]-methanone]
–	4 nM	CN(C)C1CCN(c2ccc3[nH]c(C(=O)c4ccnc(-c5cncc6ccccc56)c4)nc3c2)CC1 [Example 89, [5-(4-Dimethylamino-piperidin-1-yl)-1H-benzoimidazol-2-yl]-(2-isoquinolin-4-yl-pyridin-4-yl)-methanone]
< 10000 nM	33 nM	O=C(c1ccnc(-c2cncc3ccccc23)c1)c1nc2cc(OCC(O)CO)ccc2[nH]1 (centres unmarked) [Example 98, [5-(2,3-Dihydroxy-propoxy)-1H-benzoimidazol-2-yl]-(2-isoquinolin-4-yl-pyridin-4-yl)-methanone]
< 10000 nM	26 nM	CN1CCC(NC(=O)c2ccc3nc(C(=O)c4ccnc(-c5cncc6ccccc56)c4)[nH]c3c2)CC1 [Example 99, 2-(2-Isoquinolin-4-yl-pyridine-4-carbonyl)-3H-benzoimidazole-5-carboxylic acid (1-methyl-piperidin-4-yl)-amide]
< 10000 nM	–	CCNCc1cncc(-c2cc(C(=O)c3nc4cc(OC)c(OC)cc4[nH]3)ccc2C#N)c1 [Example 101, 4-(5,6-Dimethoxy-1H-benzoimidazole-2-carbonyl)-2-(5-ethylaminomethyl-pyridin-3-yl)-benzonitrile]
< 10000 nM	60 nM	COc1ccc(F)c(F)c1-c1cc(C(=O)c2nc3cc(N4CCC(N(C)C)CC4)ccc3[nH]2)ccn1 [Example 103, [2-(2,3-Difluoro-6-methoxy-phenyl)-pyridin-4-yl]-[5-(4-dimethylamino-piperidin-1-yl)-1H-benzoimidazol-2-yl]-methanone]
< 10000 nM	–	Cc1cc(F)ncc1-c1cc(C(=O)c2nc3ccc(N4CCC(N(C)C)CC4)cc3[nH]2)ccn1 [Example 119, [6-(4-Dimethylamino-piperidin-1-yl)-1H-benzoimidazol-2-yl]-(6′-fluoro-4′-methyl-[2,3′]bipyridinyl-4-yl)-methanone]
